Results as given in patent publication US20100298376A1, “USE OF NOVEL NEUROPROTECTIVE 3-SUBSTITUTED INDOLONE COMPOSITIONS” (BOARD OF REGENTS, THE UNIVERSITY OF TEXAS SYSTEM, priority 2009, published 2010).
Where “and” joins values, the source holds several entries; their conditions need not be identical. Equal entries are not always repeated. Where two headings read alike, the source gives them in different places.

Columns and labels:
[1] = test system: cerebellar granule neurons; settings: for % neuronal survival Mean ± SD: 24 hours, percent of HK control
Experimental: These compounds were analyzed for their neuroprotective activity in vitro. Granule neuron cultures were obtained from dissociated cerebella of 7-8 day old Wistar rats as known to one of ordinary skill in the art. Cells were plated in Basal Eagle's Medium with Earles salts (BME) supplemented with 10% fetal calf serum (FCS), 25 mM KCl, 2 mM glutamine (Invitrogen), and 100 μg/ml gentamycin on dishes (Nunc) coated with poly-L-lysine in 24-well dishes at a density 1×10^6 cells/well. Cytosine arabinofuranoside (10 μM) was added to the culture medium 18-22 hours after plating to prevent replication of non-neuronal cells that yields highly pure culture of granule neurons. The neuronal cultures were maintained for 7-8 days prior to treatments.
This experimental model of neuronal apoptosis has been used widely used to understand the molecular mechanisms underlying neurodegeneration and to identify biological and chemical agents with neuroprotective efficacy. For this, the cells were rinsed once and then maintained in low K^+ medium (serum-free BME medium, 5 mM KCl; referred to as LK), or in the case of control cultures, in high K^+ medium (serum-free BME medium, supplemented with 20 mM KCl; referred to as HK). Each compound was tested at three different concentrations of 1 μM, 5 μM, and 25 μM. The 25 μM concentration was included to evaluate neurotoxicity. For treatments, the chemical compounds (dissolved in dimethylsulfoxide) were added directly to LK medium at the time of the switch from HK at concentrations of 1 μM, 5 μM, or 25 μM. Viability was assessed 24 hours later. Each compound was tested in duplicate (at each of the concentrations) and the experiment repeated at least 3 times. Although all compounds were solubilized in dimethylsulfoxide (DMSO), the amount of DMSO in the cultures never exceeded 0.1% (v/v).
The viability status of neuronal cultures treated with HK, LK, or LK medium supplemented with various compounds was evaluated by phase contrast microscopy and quantified by staining cell nuclei with 4′,6′-diamidino2-phenylindole hydrochloride (DAPI). Briefly, the cells were fixed in 4% paraformaldehyde for 20 minutes at 4′C. After washing in phosphate buffered saline, DAPI (1 μg/ml in phosphate buffered saline) was added for 15 min at room-temperature and viewed under ultraviolet light (260 nm). Cells with condensed or fragmented nuclei were scored as dead. […] Statistical analysis was performed using an unpaired, two-tailed Student's t test, compared to mean neuronal survival of control cultures receiving LK treatment and the quantitative data are presented in Tables 1 and 2 for each compound.

[2] = Z/E isomer stability in DMSO-d6 by NMR; assay type: physicochemical; settings: 6 hours from mixing
[3] = test system: cerebellar granule neurons; experiment: TUNEL and active caspase-3 immunoreactivity in neuronal cultures (FIG. 1); assay type: cell-based, Wistar rats; settings: Compound 31 at 1 μm, compared with Compounds 7, 37 and 39, 24 hours
Text: FIG. 1 is a photograph illustrating the qualitative neuroprotective effects of Compound 7 (5 μm), Compound 31 (1 μm), Compound 37 (25 μm) and Compound 39 (25 lam) are illustrated presented in the figure. From left to right columns show phase-contrast micrographs of neuronal morphology, DAPI staining of nuclei showing fragmented nuclei, TUNEL staining also showing fragmented DNA, and active caspase-3 immunoreactivity highly indicative of apoptosis. DAPI and TUNEL panels are taken from the same fields.
The TUNEL assay of neuronal cultures was performed 24 hours after treatment of the cultures using DEADEND™ Fluorometric TUNEL System from Promega (Madison, Wis.) according to the manufacturer's instructions. For immunocytochemical analysis of active caspase 3, neuronal cultures cells were fixed and treated with 0.2% Triton for 5 minutes. After blocking with PBS containing 5% BSA and 5% goat serum in PBS for 30 minutes, the coverslips were incubated with the active capase-3 primary antibody overnight at 4° C. After three washes with phosphate-buffered saline (PBS), the cells were incubated with secondary antibodies for 45 minutes at 25° C. after which the cells were washed with PBS. To visualize nuclei, cells were stained with DAPI for 15 minutes at 25° C.

[4] = Solubility in the culture medium; settings: 25 μM
[5] = LK medium, concentration not specified

| Compound | % neuronal survival Mean ± SD ([1]; Table 1, 1 μM in LK medium) [%] | % neuronal survival Mean ± SD ([1]; Table 1, 5 μM in LK medium) | % neuronal survival Mean ± SD ([1]; Table 1, 25 μM in LK medium) [%] | neuroprotective activity (in words) [1, 5] | other results |
| --- | --- | --- | --- | --- | --- |
| O=C1Nc2ccc(Cl)cc2/C1=C\c1cc(Br)c(O)c(Br)c1 [Compound 7, (E)-3-(3′,5′-Dibromo-4-hydroxybenzylidene)-5-chlorondolin-2-one] | 84.3 ± 1.04 | 91.9% and 91.9 ± 5.31 % | 81.8 ± 14.94 | – | neurotoxicity (in words) [1]: not toxic; neuroprotective activity (in words) ([1]; at 5 μM): highly effective; percent of Z configuration after 6 hours [2]: 70% |
| O=C1Nc2ccc(F)cc2/C1=C\c1cc(Br)cc(Br)c1 [Compound 31, (E)-3-(3′,5′-Dibromobenzylidene)-5-fluoroindolin-2-one] | 38.4 ± 6.24 | 46.1 ± 4.00% | 48.1 ± 14.65 | lack of neuroprotective activity | TUNEL and active caspase-3 immunoreactivity (in words) [3]: greater TUNEL and active caspase-3 immunoreactivity |
| COc1cc(/C=C2\C(=O)Nc3ccc(Br)cc32)cc(OC)c1OC [Compound 18, (Z)-5-Bromo-3-(3′, 4′,5′-trimethoxybenzylidene)indolin-2-one] | 50.8 ± 7.67 | 59.9 ± 12.94% | 61.3 ± 1.20 | not effective | – |
| O=C1Nc2ccc([N+](=O)[O-])cc2/C1=C/c1cc(Br)c(O)c(Br)c1 [Compound 21, (Z)-3-(3′,5′-Dibromo-4-hydroxybenzylidene)-5-nitroindolin-2-one] | 79.9 ± 12.81 | 78.4 ± 31.66% | 71.3 ± 19.80 | superior to Compound 1 | percent of Z configuration after 6 hours [2]: 70% |
| CC(=O)c1ccc2c(c1)/C(=C/c1ccc[nH]1)C(=O)N2 [Compound 38] | – | – | – | moderate protective activity | % neuronal survival Mean ± SD ([1]; Table 2, 1 μM in LK medium): 69.5 ± 12.61%; % neuronal survival Mean ± SD ([1]; Table 2, 5 μM in LK medium): 87.3 ± 22.50%; % neuronal survival Mean ± SD ([1]; Table 2, 25 μM in LK medium): 87.1 ± 24.50% |
| O=C1Nc2ccc(F)cc2/C1=C/c1ccc[nH]1 [Compound 40] | – | – | – | highest neuroprotective activity | % neuronal survival Mean ± SD ([1]; Table 2, 1 μM in LK medium): 58.4 ± 3.98%; % neuronal survival Mean ± SD ([1]; Table 2, 5 μM in LK medium): 65.7 ± 0.07%; % neuronal survival Mean ± SD ([1]; Table 2, 25 μM in LK medium): 96.6 ± 1.91 %; neuroprotective activity (in words) ([1]; at 25 μM / high doses): the most effective one |
| O=C1Nc2ccc(Br)cc2/C1=C\c1cc(Br)c(O)c(Br)c1 [Compound 16, (E)-5-Bromo-3-(3′,5′-dibromo-4-hydroxybenzylidene)indolin-2-one] | 88.4 ± 0.71 | 98.7% and 98.7 ± 3.85 % | – | superior to Compound 1 | solubility in the culture medium (in words) [4]: not completely soluble; neurotoxicity (in words) [1]: not toxic; neuroprotective activity (in words) ([1]; at 1 μM and 5 μM (two lower concentrations)): highly protective; neuroprotective activity (in words) ([1]; at 5 μM): highly effective; percent of Z configuration after 6 hours [2]: 80% |
| O=C1Nc2ccccc2/C1=C\c1cc(Br)c(O)c(Br)c1 [Compound 1, (E)-3-(3′,5′-Dibromo-4′-hydroxybenzylidene)indolin-2-one] | 69.7 ± 2.19 | 88.4 ± 11.74 % | 84.6 ± 7.57 | moderately effective | neurotoxicity (in words) [1]: not toxic; percent of Z configuration after 6 hours [2]: 50% |
| O=C1Nc2ccc(Br)cc2/C1=C/c1cc(Br)cc(Br)c1 [Compound 17, (Z)-5-Bromo-3-(3′,5′-dibromobenzylidene)indolin-2-one] | 54.7 ± 8.56 | 45.4 ± 3.05% | 46.9 ± 7.74 | – | – |
| O=C1Nc2ccccc2/C1=C/c1ccc[nH]1 [Compound 35] | – | – | – | – | % neuronal survival Mean ± SD ([1]; Table 2, 1 μM in LK medium): 56.0 ± 17.21%; % neuronal survival Mean ± SD ([1]; Table 2, 5 μM in LK medium): 51.1 ± 7.06%; % neuronal survival Mean ± SD ([1]; Table 2, 25 μM in LK medium): 3.88 ± 9.58 % |
| CN(C)c1ccc(/C=C2/C(=O)Nc3ccc(Br)cc32)cc1 [Compound 20, (E)-5-Bromo-3-(4′-(dimethylamino)benzylidene)indolin-2-one] | 56.5 ± 2.28 | 54.9 ± 9.18% | 68.6 ± 9.38 | not effective | – |
| O=C1Nc2ccc(F)cc2/C1=C\c1cc(Br)c(O)c(Br)c1 [Compound 30, (E)-3-(3′,5′-Dibromo-4′-hydroxybenzylidene)-5-fluoro-indolin-2-one] | 49.3 ± 10.34 | 69.6 ± 8.96% | 18.1 ± 11.00 | not effective | neurotoxicity (in words) [1]: toxic |
| O=C1Nc2ccccc2/C1=C\c1ccco1 [Compound 45, (E)-3-(Furan-2′-ylmethylene)indoline-2-one] | – | – | – | excellent activity | % neuronal survival Mean ± SD ([1]; Table 2, 1 μM in LK medium): 70.4 ± 8.35%; % neuronal survival Mean ± SD ([1]; Table 2, 5 μM in LK medium): 82.8 ± 5.22 %; % neuronal survival Mean ± SD ([1]; Table 2, 25 μM in LK medium): 90.2 ± 3.91 % |
| O=C1Nc2ccccc2/C1=C/c1ccccc1[N+](=O)[O-] [Compound 6] | 75.8 ± 3.20 | 76.6 ± 7.14% | 81.5 ± 13.72 | – | – |
| (Z)-5-Bromo (3-(1H-pyrrol-2′-yl)methylene)indolin-2-one [Compound 37] | – | – | – | one of the most potent effective neuroprotective agents discovered | % neuronal survival Mean ± SD ([1]; Table 2, 1 μM in LK medium): 75.5 ± 14.58%; % neuronal survival Mean ± SD ([1]; Table 2, 5 μM in LK medium): 94.2 ± 0.15 %; % neuronal survival Mean ± SD ([1]; Table 2, 25 μM in LK medium): 93.0 ± 1.38 % |
| COc1cc(/C=C2\C(=O)Nc3ccc(Cl)cc32)cc(OC)c1OC [Compound 10, (Z)-5-Chloro-3-(3′, 4′,5′-trimethoxybenzylidene)indolin-2-one] | 81.1 ± 9.81 | 71.0 ± 7.26 % | 57.1 ± 10.13 | – | – |
| Cc1ccc(/C=C2\C(=O)Nc3ccc([N+](=O)[O-])cc32)cc1 [Compound 28, (Z)-3-(4′-Methylbenzylidene)-5-nitroindolin-2-one] | 54.6 ± 7.48 | 60.0 ± 1.87% | 54.3 ± 0.49 | – | – |
| O=C1Nc2ccccc2/C1=C\c1cc(Br)cc(Br)c1 [Compound 2, (E)-3-(3′,5′-Dibromobenzylidene)indolin-2-one] | 54.7 ± 5.32 | 45.4 ± 4.32% | 46.9 ± 12.30 | – | neuroprotective activity (in words) ([1]; at all three concentrations): not protective |
| O=C1Nc2ccc([N+](=O)[O-])cc2/C1=C\C=C\c1ccccc1 [Compound 26] | 80.1 ± 4.21 | 78.6 ± 13.04% | 83.9 ± 9.28 | – | – |
